Assay results published in the NIST ThermoML archive (doi:10.1021/je201391j).

Conditions: 101 kPa, Liquid mixture 1, Pendant Drop method

CCCC[N+]1(C)CCCC1.O=S(=O)([N-]S(=O)(=O)C(F)(F)F)C(F)(F)F + CCCCO
Conditions | interfacial tension [mN/m]
293.15 K | 0.666
295.65 K | 0.576
298.15 K | 0.443
300.65 K | 0.368
303.15 K | 0.276
305.65 K | 0.163
